Data from ChEMBL document CHEMBL1201862, “PubChem BioAssay data set” (2004).
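48-hour exposure; five concentrations; linearly interpolated endpoints. GI50 marks 50% less growth.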 Activity calls are given as the source filed them. Cut-off read from the data, not from the text of the source: active = GI50 up to about 1.1 µM and inactive = higher.

How the values were obtained:
Assay in all cases: NCI tumour cell line growth inhibition, 48 h
786-0 = test system: 786-0
A498 = test system: A498
A549 = test system: A549
ACHN = test system: ACHN
CAKI-1 = test system: CAKI-1
CCRF-CEM = test system: CCRF-CEM
COLO 205 = test system: COLO 205
DMS-114 = test system: DMS-114
EKVX = test system: EKVX
HCC 2998 = test system: HCC 2998
HCT-116 = test system: HCT-116
HCT-15 = test system: HCT-15
HL-60 = test system: HL-60
HOP-62 = test system: HOP-62
HT-29 = test system: HT-29
IGROV-1 = test system: IGROV-1
K562 = test system: K562
KM-20L2 = test system: KM-20L2
KM12 = test system: KM12
LOX IMVI = test system: LOX IMVI
LXFL 529 = test system: LXFL 529
M14 = test system: M14
M19-MEL = test system: M19-MEL
MOLT-4 = test system: MOLT-4
Malme-3M = test system: Malme-3M
NCI-H226 = test system: NCI-H226
NCI-H23 = test system: NCI-H23
NCI-H460 = test system: NCI-H460
NCI-H522 = test system: NCI-H522
OVCAR-3 = test system: OVCAR-3
OVCAR-4 = test system: OVCAR-4
OVCAR-5 = test system: OVCAR-5
OVCAR-8 = test system: OVCAR-8
RPMI-8226 = test system: RPMI-8226
SF-268 = test system: SF-268
SF-295 = test system: SF-295
SF-539 = test system: SF-539
SK-MEL-28 = test system: SK-MEL-28
SK-MEL-2 = test system: SK-MEL-2
SK-MEL-5 = test system: SK-MEL-5
SK-OV-3 = test system: SK-OV-3
SN12C = test system: SN12C
SNB-19 = test system: SNB-19
SNB-78 = test system: SNB-78
SR = test system: SR
SW-620 = test system: SW-620
TK-10 = test system: TK-10
U-251 = test system: U-251
UACC-257 = test system: UACC-257
UACC-62 = test system: UACC-62
UO-31 = test system: UO-31
XF498 = test system: XF498
DLD-1 = test system: DLD-1
DMS-273 = test system: DMS-273
HOP-92 = test system: HOP-92
RXF 393 = test system: RXF 393
SNB-75 = test system: SNB-75

Measured: GI50

CC(=O)c1ccc(NC(=O)/C(CC(=O)c2sc(-c3cccnc3)nc2C)=N/NC(N)=O)cc1
42.3 µM: HCT-15
inactive: 786-0 27.9 µM | A498 31.5 µM | A549 22.5 µM | ACHN 22.4 µM | CAKI-1 23.2 µM | CCRF-CEM 21.6 µM | COLO 205 18.2 µM | DMS-114 > 100 µM | EKVX 2.71 µM | HCC 2998 > 10 µM | HCT-116 22.6 µM | HL-60 29.5 µM | HOP-62 > 10 µM | HT-29 > 100 µM | IGROV-1 > 100 µM | K562 > 100 µM | KM-20L2 > 100 µM | KM12 > 100 µM | LOX IMVI > 100 µM | LXFL 529 41.4 µM | M14 > 100 µM | M19-MEL > 100 µM | MOLT-4 19.3 µM | Malme-3M > 100 µM | NCI-H226 25.9 µM | NCI-H23 > 10 µM | NCI-H460 27.1 µM | NCI-H522 98.4 µM | OVCAR-3 > 100 µM | OVCAR-4 > 100 µM | OVCAR-5 45.1 µM | OVCAR-8 56.5 µM | RPMI-8226 23.5 µM | SF-268 38.7 µM | SF-295 41.7 µM | SF-539 > 10 µM | SK-MEL-28 > 100 µM | SK-MEL-2 > 100 µM | SK-MEL-5 > 100 µM | SK-OV-3 > 100 µM | SN12C 51.6 µM | SNB-19 53.6 µM | SNB-78 > 100 µM | SR 33.1 µM | SW-620 > 100 µM | TK-10 > 10 µM | U-251 68.1 µM | UACC-257 > 10 µM | UACC-62 52.2 µM | UO-31 50.4 µM | XF498 > 100 µM

C=CCN(CC=C)CC(C(C)=O)C(c1ccccc1)c1c(O)c2ccccc2oc1=O (configuration not stated)
> 100 µM: HCT-15
inactive: 786-0 > 100 µM | A498 > 100 µM | A549 > 100 µM | ACHN > 100 µM | CAKI-1 > 100 µM | CCRF-CEM > 100 µM | COLO 205 > 100 µM | DLD-1 > 100 µM | DMS-114 > 100 µM | DMS-273 > 100 µM | EKVX > 100 µM | HCC 2998 > 100 µM | HCT-116 > 100 µM | HL-60 > 100 µM | HOP-62 > 100 µM | HOP-92 > 100 µM | HT-29 > 100 µM | IGROV-1 > 100 µM | K562 > 100 µM | KM-20L2 82.8 µM | KM12 19 µM | LOX IMVI > 100 µM | LXFL 529 > 100 µM | M14 > 100 µM | M19-MEL > 100 µM | MOLT-4 > 100 µM | Malme-3M > 100 µM | NCI-H226 45.7 µM | NCI-H23 > 100 µM | NCI-H522 82.4 µM | OVCAR-4 > 100 µM | OVCAR-5 > 100 µM | OVCAR-8 > 100 µM | RPMI-8226 > 100 µM | RXF 393 > 100 µM | SF-268 > 100 µM | SF-295 30.5 µM | SF-539 > 100 µM | SK-MEL-28 > 100 µM | SK-MEL-2 > 100 µM | SK-MEL-5 > 100 µM | SK-OV-3 > 100 µM | SN12C > 100 µM | SNB-19 15.6 µM | SNB-75 39.6 µM | SNB-78 > 100 µM | SR > 100 µM | SW-620 > 100 µM | TK-10 > 100 µM | U-251 > 100 µM | UACC-257 > 100 µM | UACC-62 > 100 µM | UO-31 18.2 µM | XF498 > 100 µM
